From patent US20150224094A1, “ADMINISTRATION OF ACETYLCHOLINESTERASE INHIBITORS TO MITIGATE NEUROTOXIN-INDUCED PARALYSIS AND RESIDUAL NEUROMUSCULAR BLOCKADE” (priority 2012, published 2015)
Values joined by “and” are separate entries in the source; they are usually repeats but may differ in a detail not shown here. Equal entries are not always repeated. “Also recorded” adds a separate entry of the source.

Experiments:
[1] = Intra-nasal administration of glycopyrrolate and neostigmine, tolerability in a healthy volunteer
Method: In this experiment, the effect of intra-nasal administration of an mAChR inhibitor (glycopyrrolate) was determined using a healthy volunteer. 5 cc of glycopyrrolate (0.2 mg/mL) in sterile water was instilled in one nostril using an LMA sponge atomizer. […] 5 cc of 0.2 mg/mL glycopyrrolate mixed in DMSO was instilled in the other nostril.

[2] = system: mivacurium-induced neuromuscular blockade; test: Reversal of experimental mivacurium paralysis in a human by intranasal neostigmine aerosol
Method: Intravenous mivacurium is administered to a subject at concentrations of 5-200 mcg/kg/min to induce a safe, stable, low level neuromuscular block for a medical procedure. After completion of the procedure a total of 4 to 30 mg of neostigmine in divided doses—each dose separated by 15 minutes ([…] a 5% or a 6% solution) is administered intra-nasally and the regression of the block is followed quantitatively using acceleromyography or clinical measures such as the improvement in muscle strength as measured by thumb adduction, handgrip strength, teeth clenching, head raising and/or swallowing.
Neuromuscular block was quantified by using the train-of-four (TOF) ratio at the left adductor pollicis (AP) muscle measured by acceleromyography and as described previously. When the subject had significant oropharyngeal weakness and met electrophysiological criteria for Level 3 block a single dose of […] IV glycopyrrolate was administered to prevent bradycardia. Five minutes later 6% neostigmine dissolved in sterile water was administered using a primed atomizer (LMA MAD Nasal Device, LMA Corporation North America, San Diego, Calif.). A total dose of 27.6 mg, 0.37 mg/kg with half the volume insufflated in each nostril was given and the subject was left undisturbed for a total period of 10 min (Shaded area, FIG. 2) except for acceleromyographic recording. After the final set of measurements, the mivacurium infusion was terminated and neuromuscular function was allowed to return spontaneously. Emergency equipment and drugs including IV neostigmine and edrophonium (for reversal of mivacurium block) and glycopyrrolate and atropine (for early treatment of neostigmine toxicity) were at the bedside at all times.
Clinical measures of muscle function emphasized those that would be seen in the setting of neurotoxic envenomation that could be readily measured in out-of-hospital settings. The clinical assessments of muscle function were as follows: visual acuity, ease of swallowing, ability to protrude the tongue, diction, and ability to raise the head completely off the bed for more than 5 sec (neck flexion) with a postal scale (WeighMax, Industrial City, Calif., USA) placed under the subjects head to confirm complete elevation and peak respiratory flow measured using a Tru-Zone Peak Flow Meter (Monaghan, Plattsburg, N.Y.). […] The subject was blinded to all clinical and acceleromyographic data as well as to the mivacurium infusion rate and the levels of neuromuscular blockade.
The mivacurium infusion was maintained with unchanged infusion rate, enabling the investigators to determine the characteristics of neostigmine effect. Analysis of TOF ratios were made using TOFMON software (Schering-Plough Corporation, Kenilworth, N.J.) and considered stable if the values obtained 10 min apart differed less than 5% and accounting for repeated measures. Student's t-test results were calculated and reported as average values, standard deviation (SD), and 95% confidence intervals (95% CI).

[3] = system: Naja naja (Indian cobra) venom; test: Intranasal neostigmine in experimental Naja naja envenomation in mice; type: in vivo
Method: After pilot studies to assess the potency of reconstituted N. naja venom, 20 mice (21-28 g) were pseudo-randomized to receive IP injections of N. naja venom (approximately 2.5×LD50 for mice, Total N=20).
After 10 minutes, 15 animals received 5 microliters of 0.5 mg/mL neostigmine by nasal administration. Animals were observed continuously for 12 hours and assessed for signs of toxicity including respiratory distress, loss of spontaneous locomotor activity with the endpoint being death. Surviving animals were euthanized after 12 hours. Comparison of time to euthanasia across groups was performed and represented in Kaplan-Meier curves
Swiss albino mice were envenomed with cobra toxin (Naja naja) by intraperitoneal injection at doses >2.5×the LD50 and that killed 100% of untreated mice “LD100”. Intranasal neostigmine was given 10 minutes after envenomation to determine if this intervention could delay or treat the envenomation. 10/15 mice recovered completely and were still behaving normally >12 hours after envenoming. 5/15 mice in the treatment group died compared to 5/5 (100%) of the envenomation group. Mice were treated only once, with no attempt to re-treat with intranasal neostigmine.

[4] = system: krait bite (Bungarus sp.); test: Case report: intranasal neostigmine aerosol for residual weakness after suspected krait bite; type: in vivo, human; conditions: single dose 0.5 cc aqueous 5% neostigmine intranasal aerosol
Text: A healthy person was sleeping on a mud platform in their village and was awakened by a snake biting their left forearm. Within minutes, they developed headache and throat discomfort. They were transported by their family from the local clinic to the Emergency Department, conscious, but with progressive weakness. On physical examination, they had complete loss of gag reflex and rapidly worsening shortness of breath. There was no fang mark, ecchymosis or local swelling, and there were no other signs of coagulopathy such as bleeding gums or hematuria. They were unable to open their eyes and became unresponsive as emergent intubation was being performed without sedation. Polyvalent anti-snake venom (ASV) was administered concurrently. Based on the pattern of symptoms, lack of coagulopathy, normal renal function and normal bleeding and clotting times as well as lack of physical evidence of snakebite, krait bite (Bungarus sp.) was suspected. Twenty-four hours after ASV therapy and continuous mechanical ventilation, they were awake and alert, but with residual weakness, including profound ptosis, bilateral 6th nerve palsies and inability to lift their neck. […] Intranasal neostigmine was administered every four hours thereafter with IV atropine as prophylaxis against cholinergic toxicity. […]

myasthenic patients = conditions: cited from earlier work
[5] = 3 cc of 1 mg/mL neostigmine into one nostril, after 2nd dose of glycopyrrolate
[6] = intranasal neostigmine, constant mivacurium infusion

In the case of `C[N+]1(C)CCC(OC(=O)C(O)(c2ccccc2)C2CCCC2)C1` (stereo not shown) [glycopyrrolate], the “effect on heart rate” value ([1]; 5 cc glycopyrrolate 0.2 mg/mL in sterile water, one nostril, LMA sponge atomizer) was “no effect”, the “effect on heart rate” value ([1]; 5 cc of 0.2 mg/mL glycopyrrolate mixed in DMSO, other nostril) was “no notable effect” and the “effect on nasal membranes” value ([1]; intranasal glycopyrrolate, noted prior to neostigmine) was “mild drying”. For the same compound, the “reversal of neostigmine-associated bradycardia” value ([2]; IV glycopyrrolate) was “easily reversed”.
With `CN(C)C(=O)Oc1cccc([N+](C)(C)C)c1` [neostigmine] the “effect on heart rate” value [1, 5] was “no effect”, the salivation [1, 5] was “no increase” and the “mice whose lives were prolonged or saved” value ([3]; 5 uL of 0.5 mg/mL IN neostigmine, 2.5× the 100% lethal dose (LD100) of Naja naja venom) was 5/5. For the same compound, the “effect on survival time” value ([3]; 5 uL of 0.5 mg/mL IN neostigmine, of Naja naja) was “trended toward prolonging the lives”, the “time to death or euthanasia” value ([3]; IN neostigmine N=15, controls 193 minutes) was 553 min and the “condition of surviving animals” value ([3]; IN neostigmine after N. naja venom) was “completely normal by 6 hours”. The “mice that died in the treatment group” value ([3]; IN neostigmine, 5/5 died in envenomation group) was 5/15, the “animals surviving / recovered of treated” value ([3]; single dose 5 uL of 0.5 mg/mL IN neostigmine 10 min after IP N. naja venom (approx. 2.5×LD50, 100% lethal in controls), 12 h observation) was 10 of 15 and 10/15 and the survival ([3]; single dose IN neostigmine 10 min after IP N. naja venom, N=15) was 67%. For the same compound, the “local tolerability of intranasal spray” value ([2]; 6% neostigmine by atomizer) was “no stinging sensation or irritation”, the “Normalized TOF ratios (mean ± SD), adductor pollicis” value ([2]; after intranasal 6% neostigmine 27.6 mg (0.37 mg/kg), constant mivacurium infusion 2.5 mcg/kg/min, pre-neostigmine 0.56) was 0.64±0.03 and the “Peak flow of baseline by the termination of the mivacurium infusion” value ([2]; after intranasal neostigmine, 135 min) was 95%. The “peak improvement adductor pollicis TOF ratio” value ([2]; after intranasal neostigmine, constant mivacurium infusion) was 0.70, the “time to feeling of facial and lingual muscles rearranging and tightening” value ([2]; after receiving intranasal neostigmine) was at most 5 min and the “time to full recovery of neck flexion” value ([2]; first test of neck flexion following neostigmine administration) was 5 min. For the same compound, the “clinically important muscular deficits / neuromuscular blockade” value [2, 6] was “quickly relieved all clinically important muscular deficits; also recorded: antagonized the neuromuscular blockade”, the “time to full recovery of ability to swallow after neostigmine administration” value [2, 6] was at most 10 min and the “bradycardia and concurrent symptoms” value ([2]; just prior to stopping the mivacurium infusion and after) was “asymptomatic bradycardia”. For the same compound, the “Peak Flow, average after neostigmine, of baseline” value ([2]; response to intranasal neostigmine, 72% under stable blockade) was 91%, the “Visual Acuity” value ([2]; response to intranasal neostigmine, >20/200 under stable blockade) was “Steady improvement and 20/20” and the “Ease of Swallowing” value ([2]; response to intranasal neostigmine, Difficult under stable blockade) was “Easy”. For the same compound, the “Tongue Protrusion” value ([2]; response to intranasal neostigmine, Moderately Difficult under stable blockade) was “Easy”, the Diction ([2]; response to intranasal neostigmine, Poor under stable blockade) was “Improved” and the “Jaw Ptosis” value ([2]; response to intranasal neostigmine, Present under stable blockade) was “None”. For the same compound, the “Neck Flexion (Head Raise >5 s)” value ([2]; response to intranasal neostigmine, Unable under stable blockade) was “Easy”, the “signs or symptoms of muscarinic-mediated toxicity” value ([2]; while the mivacurium infusion was running) was “no signs or symptoms” and the 6th nerve palsies [4] was “almost complete recovery”. For the same compound, the “time to complete resolution of ptosis” value ([4]; 24 h after ASV) was at most 30 min, the “clinical effect in myasthenic patients” value (myasthenic patients; 6% neostigmine methylsulfate intranasal, doses spaced by 15 minutes, alternating nostrils) was “salutary effects usually after the first dose” and the “puffs tolerated without ill effect” value (myasthenic patients; intranasal neostigmine at 15 minute intervals) was “up to 5 puffs”.
